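Cultured in 96-well plates, cells were exposed to test compound for 48 hours across five concentrations. The concentration for 50% growth inhibition is given as GI50.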 The source made the active and inactive calls. Rule as the data show it: active = GI50 up to about 1.1 µM and inactive = higher.
Columns and labels:
Test in all cases: DTP human tumour cell line panel, 48 h
786-0 = system: 786-0
A498 = system: A498
A549 = system: A549
ACHN = system: ACHN
CAKI-1 = system: CAKI-1
CCRF-CEM = system: CCRF-CEM
COLO 205 = system: COLO 205
DLD-1 = system: DLD-1
DMS-114 = system: DMS-114
DMS-273 = system: DMS-273
EKVX = system: EKVX
HCC 2998 = system: HCC 2998
HCT-116 = system: HCT-116
HCT-15 = system: HCT-15
HOP-62 = system: HOP-62
HOP-92 = system: HOP-92
HT-29 = system: HT-29
IGROV-1 = system: IGROV-1
K562 = system: K562
KM-20L2 = system: KM-20L2
KM12 = system: KM12
LOX IMVI = system: LOX IMVI
LXFL 529 = system: LXFL 529
M14 = system: M14
M19-MEL = system: M19-MEL
MOLT-4 = system: MOLT-4
Malme-3M = system: Malme-3M
NCI-H23 = system: NCI-H23
NCI-H460 = system: NCI-H460
NCI-H522 = system: NCI-H522
OVCAR-3 = system: OVCAR-3
OVCAR-4 = system: OVCAR-4
OVCAR-5 = system: OVCAR-5
OVCAR-8 = system: OVCAR-8
RPMI-8226 = system: RPMI-8226
RXF 393 = system: RXF 393
RXF 631 = system: RXF 631
SF-268 = system: SF-268
SF-295 = system: SF-295
SF-539 = system: SF-539
SK-MEL-28 = system: SK-MEL-28
SK-MEL-2 = system: SK-MEL-2
SK-MEL-5 = system: SK-MEL-5
SK-OV-3 = system: SK-OV-3
SN12C = system: SN12C
SNB-19 = system: SNB-19
SNB-75 = system: SNB-75
SNB-78 = system: SNB-78
SW-620 = system: SW-620
TK-10 = system: TK-10
U-251 = system: U-251
UACC-257 = system: UACC-257
UACC-62 = system: UACC-62
UO-31 = system: UO-31
XF498 = system: XF498
HL-60 = system: HL-60
NCI-H226 = system: NCI-H226
SR = system: SR
HOP-18 = system: HOP-18

`Nc1ccc(C(=O)N/C(=C\c2ccc3c(c2)OCO3)c2nc3ccc4c(c3[nH]2)C(=O)c2ccccc2C4=O)cc1` was tested, and the GI50 (786-0) was 21.2 µM (inactive), the GI50 (A498) was 14.4 µM (inactive) and the GI50 (A549) was 21.1 µM (inactive). The GI50 (ACHN) was 13.9 µM (inactive), the GI50 (CAKI-1) was 14.7 µM (inactive) and the GI50 (CCRF-CEM) was 2.26 µM (inactive). For the same compound, the GI50 (COLO 205) was 52.6 µM (inactive), the GI50 (DLD-1) was 9.82 µM (inactive) and the GI50 (DMS-114) was 28.2 µM (inactive). The GI50 (DMS-273) was 23.6 µM (inactive), the GI50 (EKVX) was 31.8 µM (inactive) and the GI50 (HCC 2998) was 43.3 µM (inactive). For the same compound, the GI50 (HCT-116) was 23.8 µM (inactive), the GI50 (HCT-15) was 42.2 µM and the GI50 (HOP-62) was 36.8 µM (inactive). The GI50 (HOP-92) was 17.5 µM (inactive), the GI50 (HT-29) was 40.6 µM (inactive) and the GI50 (IGROV-1) was 17.5 µM (inactive). The GI50 (K562) was 25.5 µM (inactive), the GI50 (KM-20L2) was 59.6 µM (inactive) and the GI50 (KM12) was 17.8 µM (inactive). For the same compound, the GI50 (LOX IMVI) was 26.1 µM (inactive), the GI50 (LXFL 529) was 30.5 µM (inactive) and the GI50 (M14) was 37.8 µM (inactive). For the same compound, the GI50 (M19-MEL) was 38.2 µM (inactive), the GI50 (MOLT-4) was 4.75 µM (inactive) and the GI50 (Malme-3M) was 61.8 µM (inactive). For the same compound, the GI50 (NCI-H23) was 14.4 µM (inactive), the GI50 (NCI-H460) was 26.4 µM (inactive) and the GI50 (NCI-H522) was 6.75 µM (inactive). For the same compound, the GI50 (OVCAR-3) was 32.9 µM (inactive), the GI50 (OVCAR-4) was 50.5 µM (inactive) and the GI50 (OVCAR-5) was > 100 µM (inactive). For the same compound, the GI50 (OVCAR-8) was 29.6 µM (inactive), the GI50 (RPMI-8226) was 3.68 µM (inactive) and the GI50 (RXF 393) was 10.5 µM (inactive). The GI50 (RXF 631) was 37.3 µM (inactive), the GI50 (SF-268) was 12.4 µM (inactive) and the GI50 (SF-295) was 41.7 µM (inactive). For the same compound, the GI50 (SF-539) was 21.6 µM (inactive), the GI50 (SK-MEL-28) was 33.1 µM (inactive) and the GI50 (SK-MEL-2) was 21.1 µM (inactive). For the same compound, the GI50 (SK-MEL-5) was 29 µM (inactive), the GI50 (SK-OV-3) was 23.1 µM (inactive) and the GI50 (SN12C) was 30.1 µM (inactive). The GI50 (SNB-19) was 30 µM (inactive), the GI50 (SNB-75) was 19.9 µM (inactive) and the GI50 (SNB-78) was 45.9 µM (inactive). The GI50 (SW-620) was 27.2 µM (inactive), the GI50 (TK-10) was 23.1 µM (inactive) and the GI50 (U-251) was 33 µM (inactive). The GI50 (UACC-257) was 58.7 µM (inactive), the GI50 (UACC-62) was 33.7 µM (inactive) and the GI50 (UO-31) was 2.64 µM (inactive). For the same compound, the GI50 (XF498) was 93.8 µM (inactive).

In the case of `Cc1cn(C2CC(N(C)C)C(CO)O2)c(=O)[nH]c1=O` (stereo not given), the GI50 (786-0) is reported as > 100 µM (inactive), the GI50 (A498) is reported as > 100 µM (inactive) and the GI50 (ACHN) is reported as > 100 µM (inactive). For the same compound, the GI50 (CAKI-1) was > 100 µM (inactive), the GI50 (CCRF-CEM) was > 100 µM (inactive) and the GI50 (COLO 205) was > 100 µM (inactive). For the same compound, the GI50 (DLD-1) was > 100 µM (inactive), the GI50 (DMS-114) was > 100 µM (inactive) and the GI50 (DMS-273) was > 100 µM (inactive). For the same compound, the GI50 (HCC 2998) was > 100 µM (inactive), the GI50 (HCT-116) was > 100 µM (inactive) and the GI50 (HL-60) was > 100 µM (inactive). The GI50 (HOP-62) was > 100 µM (inactive), the GI50 (HOP-92) was > 100 µM (inactive) and the GI50 (IGROV-1) was > 100 µM (inactive). For the same compound, the GI50 (K562) was > 100 µM (inactive), the GI50 (LXFL 529) was > 100 µM (inactive) and the GI50 (M14) was > 100 µM (inactive). The GI50 (M19-MEL) was > 100 µM (inactive), the GI50 (MOLT-4) was > 100 µM (inactive) and the GI50 (Malme-3M) was > 100 µM (inactive). For the same compound, the GI50 (NCI-H226) was > 100 µM (inactive), the GI50 (NCI-H23) was > 100 µM (inactive) and the GI50 (NCI-H522) was > 100 µM (inactive). For the same compound, the GI50 (OVCAR-4) was > 100 µM (inactive), the GI50 (RPMI-8226) was > 100 µM (inactive) and the GI50 (RXF 631) was > 100 µM (inactive). The GI50 (SF-268) was > 100 µM (inactive), the GI50 (SF-539) was > 100 µM (inactive) and the GI50 (SK-MEL-28) was > 100 µM (inactive). For the same compound, the GI50 (SK-MEL-2) was > 100 µM (inactive), the GI50 (SK-OV-3) was > 100 µM (inactive) and the GI50 (SN12C) was > 100 µM (inactive). For the same compound, the GI50 (SNB-75) was > 100 µM (inactive), the GI50 (SNB-78) was > 100 µM (inactive) and the GI50 (SR) was > 100 µM (inactive). The GI50 (UACC-62) was > 100 µM (inactive), the GI50 (UO-31) was > 100 µM (inactive) and the GI50 (XF498) was > 100 µM (inactive).

`COc1cc(/C=C2/C(=O)N(C(=O)OCC(C)C)C(Cc3cc(OC)c(OC)c(C)c3OC)C(=O)N2Cc2ccccc2)c(OC)c(C)c1OC` (stereo not given) was tested, and the GI50 (786-0) was > 100 µM (inactive), the GI50 (A498) was > 100 µM (inactive) and the GI50 (A549) was > 100 µM (inactive). For the same compound, the GI50 (ACHN) was > 100 µM (inactive), the GI50 (CAKI-1) was > 100 µM (inactive) and the GI50 (CCRF-CEM) was 21.3 µM (inactive). For the same compound, the GI50 (COLO 205) was 11.2 µM (inactive), the GI50 (DLD-1) was 84.3 µM (inactive) and the GI50 (DMS-114) was 23.1 µM (inactive). For the same compound, the GI50 (DMS-273) was > 100 µM (inactive), the GI50 (EKVX) was 72.1 µM (inactive) and the GI50 (HCC 2998) was > 100 µM (inactive). For the same compound, the GI50 (HCT-116) was 20.2 µM (inactive), the GI50 (HL-60) was 8.2 µM (inactive) and the GI50 (HOP-18) was > 100 µM (inactive). For the same compound, the GI50 (HOP-62) was 54.7 µM (inactive), the GI50 (HOP-92) was 4.74 µM (inactive) and the GI50 (HT-29) was > 100 µM (inactive). The GI50 (IGROV-1) was > 100 µM (inactive), the GI50 (K562) was 19.2 µM (inactive) and the GI50 (KM-20L2) was > 100 µM (inactive). The GI50 (KM12) was > 100 µM (inactive), the GI50 (LOX IMVI) was > 100 µM (inactive) and the GI50 (LXFL 529) was 5.57 µM (inactive). The GI50 (M14) was 69.3 µM (inactive), the GI50 (M19-MEL) was > 100 µM (inactive) and the GI50 (MOLT-4) was 7.35 µM (inactive). The GI50 (Malme-3M) was > 100 µM (inactive), the GI50 (NCI-H226) was 2.56 µM (inactive) and the GI50 (NCI-H23) was > 100 µM (inactive). The GI50 (NCI-H460) was 30.5 µM (inactive), the GI50 (NCI-H522) was 5.26 µM (inactive) and the GI50 (OVCAR-3) was 79.4 µM (inactive). The GI50 (OVCAR-4) was > 100 µM (inactive), the GI50 (OVCAR-5) was > 100 µM (inactive) and the GI50 (OVCAR-8) was > 100 µM (inactive). For the same compound, the GI50 (RPMI-8226) was 21.8 µM (inactive), the GI50 (RXF 393) was > 100 µM (inactive) and the GI50 (RXF 631) was > 100 µM (inactive). The GI50 (SF-268) was > 100 µM (inactive), the GI50 (SF-295) was 62.7 µM (inactive) and the GI50 (SF-539) was > 100 µM (inactive). The GI50 (SK-MEL-28) was > 100 µM (inactive), the GI50 (SK-MEL-2) was 94.6 µM (inactive) and the GI50 (SK-MEL-5) was 74.6 µM (inactive). The GI50 (SK-OV-3) was > 100 µM (inactive), the GI50 (SN12C) was > 100 µM (inactive) and the GI50 (SNB-19) was > 100 µM (inactive). The GI50 (SNB-75) was > 100 µM (inactive), the GI50 (SR) was 25.1 µM (inactive) and the GI50 (SW-620) was > 100 µM (inactive). For the same compound, the GI50 (TK-10) was > 100 µM (inactive), the GI50 (U-251) was > 100 µM (inactive) and the GI50 (UACC-257) was 15.9 µM (inactive). For the same compound, the GI50 (UACC-62) was > 100 µM (inactive) and the GI50 (UO-31) was 11.6 µM (inactive).
